# According to patent publication US10201586B2 (dated 2019):
# Like-named read-outs stand apart in the source and are kept apart here. Where a SMILES comes first, the peptide text is derived from it. Bridges are numbered along the chain shown (N, C = ends). [ ]: non-standard residue; d: D form. The star is where a group is joined. X2 = NCCCC[C@H](NC(=O)CCC(=O)NCCCOCCOCCOCCCN*)C(=O)N[C@@H](CCCCN)C(=O)N[C@@H](CCCCNC(=O)CCCC[C@@H]1SC[C@@H]2NC(=O)N[C@@H]21)C(N)=O; Tle = CC(C)(C)[C@H](N)C(=O)O; hCys = N[C@@H](CCS)C(=O)O; Aib = CC(C)(N)C(=O)O; Sar = CNCC(=O)O
# Assays:
# [1] = molecular target: T1, Tissue Factor Pathway Inhibitor (TFPI) (Homo sapiens, UniProt P10646); experiment: IC50 ELISA | IC50 [nM]
# Target sequence in this assay (P10646 29-304 limits assumed): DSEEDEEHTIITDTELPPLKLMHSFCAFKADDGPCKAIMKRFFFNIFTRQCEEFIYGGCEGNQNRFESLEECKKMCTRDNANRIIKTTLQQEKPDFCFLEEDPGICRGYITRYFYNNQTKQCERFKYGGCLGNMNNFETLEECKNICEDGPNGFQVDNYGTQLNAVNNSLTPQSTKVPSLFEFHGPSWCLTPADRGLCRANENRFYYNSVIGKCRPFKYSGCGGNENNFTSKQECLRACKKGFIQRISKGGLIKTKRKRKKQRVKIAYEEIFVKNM
# TFPI [2] = molecular target: T2, TFPI (Homo sapiens, UniProt P10646); experiment: Extrinsic Tenase Inhibition by TFPI | % Inhibit (2.5µM); settings: read-out: Extrinsic Tenase Inhibition by TFPI | % Inhibit ([…])
# Target sequence in this assay (P10646 29-304 limits assumed): as above
# [3] = system: thrombin generation in FVIII- or FIX-deficient or FVIII-inhibited plasma; experiment: plasma-based thrombin generation assay (calibrated automated thrombography); assay type: biochemical, human
# [4] = molecular target: T3, recombinant human full length TFPI (Homo sapiens, UniProt P10646); experiment: Progression curve | EC50 (µM)
# T3 sequence (P10646 29-304 limits assumed): as above
# From the text: Table printed on a drawing sheet, FIGURE 62F
# Head of the field: Progression curve | EC50 (µM)
# Designation “n.a.” is “not analyzed.” Progression curve data were obtained using the FXa inhibition assay described in Example 3 with recombinant human full length TFPI. Assay concentration of progression curve assay was 0.0025% (0.1% Tween80 used in peptide dilution buffer).
# First copying reader's note: Last part (62F) of a table continued over FIG. 62A-62F.
# [5] = molecular target: T1, Tissue Factor Pathway Inhibitor (TFPI); experiment: IC50 ELISA | IC50 [nM]; remark: listed apart in the source
# Target sequence in this assay (P10646 29-304 limits assumed): as above
# [6] = molecular target: T1, Tissue Factor Pathway Inhibitor (TFPI); experiment: IC50 ELISA | IC50 [nM]; remark: listed apart in the source
# Target sequence in this assay (P10646 29-304 limits assumed): as above
# [7] = molecular target: T3, recombinant human full length TFPI; experiment: Progression curve | EC50 (µM); remark: listed apart in the source
# [8] = molecular target: T1, Tissue Factor Pathway Inhibitor (TFPI); experiment: Progress Curves of Inhibition of FXa | % Inhibit (2.5µM)
# TFPI [9] = molecular target: T2, TFPI; experiment: Extrinsic Tenase Inhibition by TFPI | % Inhibit (2.5µM)
# TFPI [10] = molecular target: T2, TFPI; experiment: as above; remark: listed apart in the source
# TFPI [11] = molecular target: T2, TFPI; experiment: % Inhibition @ 2.5µM
# TFPI [12] = molecular target: T2, TFPI; experiment: IC50 [nm]
# Target sequence in this assay (P10646 29-304 limits assumed): as above
# human plasma = settings: up to 24 hour
molecule,measurement,setting,value
CC(=O)N[C@@H](Cc1ccccc1)C(=O)N[C@@H](CCC(N)=O)C(=O)N[C@@H](CO)C(=O)N[C@@H](CCCCN)C(=O)N(C)CC(=O)N[C@@H](CC(N)=O)C(=O)N[C@H](C(=O)N[C@@H](Cc1ccccc1)C(=O)N[C@H](C(=O)N[C@H](C(=O)NCC(=O)N[C@@H](Cc1ccc(O)cc1)C(=O)N[C@@H](Cc1ccccc1)C(=O)N[C@@H](CCC(=O)O)C(=O)N[C@@H](CCCNC(=N)N)C(=O)N[C@@H](CC(C)C)C(=O)NC(C)(C)C(=O)N[C@@H](C)C(=O)N[C@@H](CCCCN)C(=O)N[C@@H](CC(C)C)C(N)=O)[C@@H](C)O)C(C)C)C(C)C [JBT1585 | 4018] (Ac-FQSK[Sar]NVFVTGYFERL[Aib]AKL-NH2),IC50,[1],15.1 nM
CC[C@H](C)[C@H](NC(=O)[C@H](CC(=O)O)NC(=O)[C@@H]1CCCN1C(=O)[C@H](Cc1c[nH]c2ccccc12)NC(=O)[C@H](CCSC)NC(=O)[C@@H](NC(=O)[C@H](Cc1c[nH]c2ccccc12)NC(=O)[C@H](Cc1ccccc1)NC(=O)[C@H](Cc1ccc(O)cc1)NC(=O)[C@H](CCCNC(=N)N)NC(=O)[C@@H]1CCCN1C(=O)[C@H](Cc1c[nH]cn1)NC(=O)[C@@H](NC(=O)[C@H](CCC(N)=O)NC(=O)[C@H](Cc1c[nH]c2ccccc12)NC(=O)[C@@H](NC(=O)CNC(=O)[C@H](CO)NC(=O)[C@H](CCCCN)NC(=O)[C@H](CCCCN)NC(C)=O)C(C)C)[C@@H](C)O)[C@@H](C)O)C(=O)N[C@@H](CCCCN)C(=O)NCC(=O)N[C@@H](CCC(=O)O)C(=O)N[C@H](C(=O)N[C@H](C(=O)N[C@H](C(=O)N[C@@H](CC(C)C)C(=O)N[C@@H](Cc1ccccc1)C(=O)NCC(=O)N[C@H](C(=O)N[C@@H](CO)C(=O)NCCCOCCOCCOCCCNC(=O)CCC(=O)N[C@@H](CCCCN)C(=O)N[C@@H](CCCCN)C(=O)N[C@@H](CCCCNC(=O)CCCC[C@@H]1SC[C@@H]2NC(=O)N[C@@H]21)C(N)=O)[C@@H](C)O)C(C)C)[C@@H](C)CC)C(C)C [JBT0103] (Ac-KKSGVWQTHPRYFWTMWPDIKGEVIVLFGTS-X2),inhibition at […],TFPI [2],21%
CSCC[C@@H]1NC(=O)CNC(=O)[C@@H](NC(=O)[C@H](Cc2ccccc2)NC(=O)[C@H](Cc2c[nH]c3ccccc23)NC(=O)[C@H](CCCCN)NC(=O)[C@H](Cc2ccc(O)cc2)NC(=O)[C@H](CCCNC(=N)N)NC(=O)[C@H](CO)NC(=O)[C@H](C)NC(=O)CNC(=O)[C@H](CO)NC(C)=O)CSSC[C@@H](C(=O)N[C@H](C(=O)N[C@@H](Cc2c[nH]c3ccccc23)C(=O)N[C@H](C(=O)N[C@@H](CCCCN)C(=O)N[C@@H](Cc2ccccc2)C(=O)N[C@@H](CCCNC(=N)N)C(=O)N[C@@H](Cc2ccc(O)cc2)C(=O)N[C@@H](CC(=O)O)C(=O)N[C@H](C(=O)N[C@@H](CO)C(N)=O)[C@@H](C)O)C(C)C)C(C)C)NC(=O)[C@H](CO)NC(=O)[C@H](CCSC)NC(=O)[C@H]([C@@H](C)O)NC(=O)CNC(=O)[C@H](CCCCN)NC(=O)[C@H](CCSC)NC(=O)[C@H](CC(=O)O)NC(=O)[C@H](CCCNC(=N)N)NC1=O [JBT0120],peak thrombin and peak time,[3]; FIGS. 11A and 11B,"improved peak thrombin and peak time, dose dependently"
"CC(=O)N[C@@H](Cc1ccccc1)C(=O)N[C@@H](CCC(N)=O)C(=O)N[C@@H](CO)C(=O)N[C@@H](CCCCN)C(=O)N1CCC[C@@H]1C(=O)N[C@@H](CC(N)=O)C(=O)N[C@H](C(=O)N[C@@H](Cc1c[nH]cn1)C(=O)N[C@H](C(=O)N[C@@H](CC(=O)O)C(=O)N[C@@H]1CSSCC[C@@H](C(=O)N[C@@H](CCCNC(=N)N)C(=O)N[C@@H](CC(C)C)C(=O)NC(C)(C)C(=O)N[C@@H](C)C(=O)N[C@@H](CCCCN)C(=O)N[C@@H](CC(C)C)C(N)=O)NC(=O)[C@H](Cc2ccccc2)NC(=O)[C@H](Cc2ccc(O)cc2)NC1=O)C(C)(C)C)C(C)C [JBT2494 | 4209, Ac-FQSKpNVH-Tle-D[cYF-Hcy-]RL-Aib-AKL-NH2] (Ac-FQSK[dP]NVH[Tle]D[dC]YF[hCys]RL[Aib]AKL-NH2; disulfide 11-14)",EC50,[4],2 nM
same,IC50,[5],2.84 nM
Ac-FQSK-dtc-NVHVDGYFERL-Aib-AKL-NH2 [JBT2285 | 4047],IC50,[1],3.44 nM
Ac-FQSKpNVHV-C(ME-400MA)-GYFERL-Aib-AKL-NH2 [JBT2403 | 4122],IC50,[6],22.9 nM
same,EC50,[7],15.3 nM
"CC(=O)N[C@@H](Cc1ccccc1)C(=O)N[C@@H](CCC(N)=O)C(=O)N[C@@H](CO)C(=O)N[C@@H](CCCCN)C(=O)N1CCC[C@@H]1C(=O)N[C@@H](CC(N)=O)C(=O)N[C@H](C(=O)N[C@@H](Cc1c[nH]cn1)C(=O)N[C@H](C(=O)N[C@@H](CC(=O)O)C(=O)N[C@@H]1CSSC[C@@H](C(=O)N[C@@H](CCCNC(=N)N)C(=O)N[C@@H](CC(C)C)C(=O)NC(C)(C)C(=O)N[C@@H](C)C(=O)N[C@@H](CCCCN)C(=O)N[C@@H](CC(C)C)C(N)=O)NC(=O)[C@H](Cc2ccccc2)NC(=O)[C@H](Cc2ccc(O)cc2)NC1=O)C(C)(C)C)C(C)C [JBT2495 | 4210, Ac-FQSKpNVH-Tle-D[cYFC]RL-Aib-AKL-NH2] (Ac-FQSK[dP]NVH[Tle]D[dC]YFCRL[Aib]AKL-NH2; disulfide 11-14)",EC50,[4],2.1 nM
same,IC50,[5],3.48 nM
Ac- KKPLAVQLHVSKRSKEMALARLYYKTSKK- NH2 (SEQ ID NO: 2129) (Ac-KKPLAVQLHVSKRSKEMALARLYYKTSKK-NH2) [JBT0229],Progress Curves of Inhibition of FXa | % Inhibit ([…]),[8],0%
same,Extrinsic Tenase Inhibition by TFPI | % Inhibit ([…]),TFPI [9],0%
Ac-ASFPLAVQLHVSKRSKE-NH2 (SEQ ID NO: 2313) [JBT0363],Extrinsic Tenase Inhibition by TFPI | % Inhibit ([…]),TFPI [10],9%
same,% Inhibition @ […],TFPI [11],0%
CSCC[C@@H]1NC(=O)CNC(=O)[C@@H](NC(=O)[C@H](Cc2ccccc2)NC(=O)[C@H](Cc2c[nH]c3ccccc23)NC(=O)[C@H](CCCCN)NC(C)=O)CSSC[C@@H](C(=O)N[C@H](C(=O)N[C@@H](Cc2c[nH]c3ccccc23)C(=O)N[C@H](C(=O)N[C@@H](CCCCN)C(=O)N[C@@H](Cc2ccccc2)C(=O)N[C@@H](CCCNC(=N)N)C(=O)N[C@@H](Cc2ccc(O)cc2)C(=O)N[C@@H](CC(=O)O)C(=O)N[C@H](C(=O)N[C@@H](CO)C(N)=O)[C@@H](C)O)C(C)C)C(C)C)NC(=O)[C@H](CO)NC(=O)[C@H](CCSC)NC(=O)[C@H]([C@@H](C)O)NC(=O)CNC(=O)[C@H](CCCCN)NC(=O)[C@H](CCSC)NC(=O)[C@H](CC(=O)O)NC(=O)[C@H](CCCNC(=N)N)NC1=O [JBT0324 | 1155] (Ac-KWFCGMRDMKGTMSCVWVKFRYDTS-NH2; disulfide 4-15),IC50,TFPI [12],1930 nM
Ac-FQSKpNVHVDGYFERL-Aib-AKL-NH2,cleaved bond,human plasma,Val9-Asp10
Ac-FQSKp-C(ME-400MA)-VHVDGYFERL-Aib-AKL-NH2 [JBT2402 | 4121],IC50,[6],20.5 nM
same,EC50,[7],2.6 nM
CC(=O)N[C@@H](CO)C(=O)NCC(=O)N[C@H](C(=O)NCC(=O)N[C@@H](CCCNC(=N)N)C(=O)N[C@@H](CC(C)C)C(=O)N[C@@H](CCC(N)=O)C(=O)N[C@H](C(=O)N[C@@H](C)C(=O)N[C@@H](Cc1ccccc1)C(=O)N[C@@H](CCC(N)=O)C(=O)N[C@@H](CO)C(=O)N[C@@H](CCCCN)C(=O)N[C@@H](CCCCN)C(=O)N[C@@H](CC(N)=O)C(=O)N[C@H](C(=O)N[C@@H](Cc1ccccc1)C(=O)N[C@H](C(=O)N[C@@H](Cc1ccccc1)C(=O)NCC(=O)N[C@@H](Cc1ccc(O)cc1)C(=O)N[C@@H](CC(C)C)C(=O)N[C@@H](Cc1ccccc1)C(=O)N[C@@H](CCC(=O)O)C(=O)N[C@@H](CCCNC(=N)N)C(=O)N[C@@H](CC(C)C)C(=O)N[C@@H](CCCNC(=N)N)C(=O)N[C@@H](C)C(=O)N[C@@H](CCCCN)C(=O)N[C@@H](CC(C)C)C(=O)N[C@H](C(=O)N[C@@H](CO)C(N)=O)[C@@H](C)O)C(C)C)C(C)C)C(C)C)C(C)C [JBT0047] (Ac-SGVGRLQVAFQSKKNVFVFGYLFERLRAKLTS-NH2),FVIII-equivalent activity (mU/ml) in Hem A plasma @ 1 μM peptide,[3],45 mU/ml
